Consider 19 molecules from ChEMBL document CHEMBL1123686, “Esters of N,N-disubstituted 2-hydroxyacetamides as a novel highly biolabile prodrug type for carboxylic acid agents” (J Med Chem, 1987).

Converted amounts (≈) assume the structure as drawn. Where only a bound is given, the exact number is not on record here.

Series [1] in a line: (§1) Half life of ester hydrolysis in 50% human plasma ( pH of 7.4) at 37 degree Centigrade. The conditions noted are these: 50% human plasma, pH 7.4.
A short description of series [2]: Second order rate constant for hydroxide ion catalyzed by hydrolysis at 37 degree Centigrade.
A short description of series [3]: physchem.
Series [4] in a line: physchem. The source holds these as a separate data set.
The species entered for series [5] is Homo sapiens. The description is as §1. As to conditions: pH 7.4.
The species entered for series [6] is Homo sapiens. The conditions noted are these: Plasma, pH 7.4.
Description: Ability to undergo in vitro ester hydrolysis in 80% human plasma ( pH of 7.4) at 37 degree Celsius expressed as half life of N,N-diethylglycolamide ester hydrolysis
Series [7] is filed under the species Homo sapiens. As to conditions: Plasma, pH 7.4. This is another data set of the same source.
Description: Ability to undergo in vitro ester hydrolysis in 80% human plasma ( pH of 7.4) at 37 degree Celsius expressed as half life of methyl ester hydrolysis
Series [8] is described as follows: Half life of ester hydrolysis in 50% human plasma ( pH of 7.4) at 37 degree Centigrade. The series is classed as ADME, organism-based. The conditions noted are these: pH 7.4.

For orientation: half-life means how long it takes for the measured level to halve. A high value points to slow decline. In general, solubility refers to how much of the substance goes into solution per volume. Read a low solubility as a poorly soluble substance. Broadly, the logD is lipophilicity at a set pH, counting ionised and neutral species. In turn, `CC(C)(C)NC(=O)COC(=O)c1ccccc1` returned a half-life in series [1] of 4.2 min. The molecule further gave a kOH in series [2] of 0.855 M⁻¹ s⁻¹. In the series “physchem [3]”, the solubility was 320 µg/mL (≈ 1.36 mM). Besides, the logD in the series “physchem [4]” (0.01 M HCl) amounted to 2.26.
Turning to `C=CCN(CC=C)C(=O)COC(=O)c1ccccc1` [BENZOIC ACID DIALLYLCARBAMOYLMETHYL ESTER], the T1/2 in the series filed under Homo sapiens [5] amounted to 0.08 min. The molecule also returned a kOH in series [2] of 0.307 M⁻¹ s⁻¹. The solubility in “physchem [3]” was determined as 710 µg/mL (≈ 2.74 mM). The logD in the series “physchem [4]” (octanol/water) stood at 2.34.
Consider `COc1ccc2c(c1)c(CC(=O)O)c(C)n2C(=O)c1ccc(Cl)cc1` [INDOMETHACIN], for which the T1/2 in the series listed under Homo sapiens [6] was 25 min; in the series listed under Homo sapiens [7], 150 h.
In series [1], `CNC(=O)COC(=O)c1ccccc1` [BENZOIC ACID METHYLCARBAMOYLMETHYL ESTER] came in with a half-life of 9.3 min. The molecule also registered a kOH in series [2] of 1.42 M⁻¹ s⁻¹. Further, in “physchem [3]”, the concentration in solution (solubility) came to 3700 µg/mL (≈ 19.2 mM). In addition, the logD in the series “physchem [4]” (0.01 M HCl) came out at 0.99.
As to `CN(CC(=O)O)C(=O)COC(=O)c1ccccc1`, the half-life in series [1] was determined as 104 min. Further, the kOH in series [2] amounted to 0.25 M⁻¹ s⁻¹. The molecule further registered a logD in the series “physchem [4]” (0.01 M HCl) of 0.67.
Consider `CN1CCN(C(=O)COC(=O)c2ccccc2)CC1`, for which the half-life in series [1] worked out at 12.7 min. In addition, the kOH in series [2] came out at 0.357 M⁻¹ s⁻¹.
Consider `O=C(OCC(=O)N(CCO)CCO)c1ccccc1`, for which the half-life in series [1] was found to be 0.42 min. Further, in series [2], the kOH stood at 0.23 M⁻¹ s⁻¹. The same molecule came in with a solubility in “physchem [3]” of 720000 µg/mL (≈ 2690 mM).
For the molecule `CN(CCO)C(=O)COC(=O)c1ccccc1`, the half-life in series [1] amounted to 0.2 min. Besides, in series [2], the kOH amounted to 0.268 M⁻¹ s⁻¹.
With `O=C(O)c1ccccc1O` [SALICYLIC ACID], the T1/2 in the series listed under Homo sapiens [6] was determined as 0.08 min; in the series filed under Homo sapiens [7], 17.6 h.
As to `CN(C)C(=O)COC(=O)c1ccccc1` [BENZOIC ACID DIMETHYLCARBAMOYLMETHYL ESTER], in series [1], the half-life is 0.15 min. Also, the kOH in series [2] is 0.325 M⁻¹ s⁻¹. Moreover, in “physchem [3]”, the solubility turned out to be 8800 µg/mL (≈ 42.5 mM).
In the case of `CCCN(CCC)C(=O)COC(=O)c1ccccc1` [BENZOIC ACID DIPROPYLCARBAMOYLMETHYL ESTER], in series [1], the half-life is 0.14 min. This molecule displayed a kOH in series [2] of 0.237 M⁻¹ s⁻¹.
Consider `CCCCN(CCCC)C(=O)COC(=O)c1ccccc1` [BENZOIC ACID DIBUTYLCARBAMOYLMETHYL ESTER], for which the half-life in series [1] was found to be 3.1 min. The molecule also registered a kOH in series [2] of 0.188 M⁻¹ s⁻¹. This molecule returned a solubility in “physchem [3]” of 80 µg/mL (≈ 0.275 mM).
As for `CCNC(=O)COC(=O)c1ccccc1` [BENZOIC ACID ETHYLCARBAMOYLMETHYL ESTER], in series [1], the half-life amounted to 11.5 min. Further, in series [2], the kOH came to 1.1 M⁻¹ s⁻¹. The same molecule registered a solubility in “physchem [3]” of 1200 µg/mL (≈ 5.79 mM). The same molecule registered a logD in “physchem [4]” (0.01 M HCl) of 1.28.
In turn, `CCOC(=O)CN(C)C(=O)COC(=O)c1ccccc1` came in with a half-life in series [1] of 0.22 min.
For the molecule `CN(C)CCN(C)C(=O)COC(=O)c1ccccc1.Cl`, the half-life in series [1] is 0.12 min. Besides, in series [2], the kOH stood at 0.297 M⁻¹ s⁻¹. Further, the solubility in the series “physchem [3]” is greater than 200000 µg/mL.
In series [1], `CCCNC(=O)COC(=O)c1ccccc1` [BENZOIC ACID PROPYLCARBAMOYLMETHYL ESTER] returned a half-life of 11.2 min. This molecule returned a kOH in series [2] of 0.868 M⁻¹ s⁻¹. In the series “physchem [3]”, this molecule displayed a solubility of 640 µg/mL (≈ 2.89 mM). Besides, the logD in the series “physchem [4]” (0.01 M HCl) turned out to be 1.88.
`NC(=O)COC(=O)c1ccccc1` [BENZOIC ACID CARBAMOYLMETHYL ESTER] returned a half-life in series [8] of 31 min. In series [2], the kOH is 1.32 M⁻¹ s⁻¹. The concentration in solution in “physchem [3]” (solubility) was 4100 µg/mL (≈ 22.9 mM). Also, the logD in the series “physchem [4]” (0.01 M HCl) amounted to 0.09.
Turning to `CCN(CCO)C(=O)COC(=O)c1ccccc1`, in series [1], the half-life was 0.16 min. The kOH in series [2] was 0.273 M⁻¹ s⁻¹.
`CCN(CC)C(=O)COC(=O)c1ccccc1` [BENZOIC ACID DIETHYLCARBAMOYLMETHYL ESTER] came in with a T1/2 in the series filed under Homo sapiens [5] of 0.04 min. The kOH in series [2] came to 0.273 M⁻¹ s⁻¹. Also, the solubility in the series “physchem [3]” stood at 2000 µg/mL (≈ 8.5 mM).
